What was measured:
[1] = target: T1, Retinoic acid receptor: RAR (Homo sapiens, UniProt P10276); assay: Receptor binding assay by using human promyelocytic leukemia cells HL60 (nucleus-extracted fraction, 3H-all-trans retinoic acid); details: 50% inhibition concentration of 3H-all-trans retinoic acid binding, 4° C. for 16 hours
T1 construct: using a fraction extracted from the nucleus of HL60; endogenous in cells; host or cells: HL60 cells, nucleus-extracted fraction (0.4 M KCl extract, 100,000 x g supernatant)
T1 sequence (P10276 1-462): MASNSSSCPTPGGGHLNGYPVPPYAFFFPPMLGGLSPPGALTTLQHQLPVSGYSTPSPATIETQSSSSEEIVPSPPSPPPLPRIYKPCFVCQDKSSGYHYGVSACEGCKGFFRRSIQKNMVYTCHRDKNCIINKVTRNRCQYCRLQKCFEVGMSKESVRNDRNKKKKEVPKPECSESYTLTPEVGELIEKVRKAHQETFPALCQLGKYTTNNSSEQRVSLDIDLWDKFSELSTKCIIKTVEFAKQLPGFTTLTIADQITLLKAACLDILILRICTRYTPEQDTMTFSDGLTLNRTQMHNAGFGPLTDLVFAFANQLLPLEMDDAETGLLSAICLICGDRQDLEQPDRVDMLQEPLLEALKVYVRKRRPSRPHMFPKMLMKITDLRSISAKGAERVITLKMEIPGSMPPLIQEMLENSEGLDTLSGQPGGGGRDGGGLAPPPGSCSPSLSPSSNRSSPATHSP
Experimental: Receptor binding assay by using human promyelocytic leukemia cells HL60
The nucleus-extracted fraction was prepared as described below.
In 15 ml of Solution A [5 mM sodium phosphate (pH 7.4), 10 mM monothioglycerol, 10% v/v glycerol, 1 mM phenylmethyl sulfonyl fluoride (PMSF), 10 μg/ml of aprotinin and 25 μg/ml of leupeptin], HL60 cells (5×10^8) were suspended. The resulting suspension was homogenized, followed by centrifugal separation to remove the supernatant. The precipitate so obtained was suspended in 15 ml of Solution B [10 mM tris-HCl (Tris-HCl) (pH 8.5), 10 mM monothioglycerol, 10% (v/v) glycerol, 1 mM PMSF, 10 μg/ml aprotinin, 25 μg/ml leupeptin and 0.4 M KC1]. After being allowed to stand at 4° C. for one hour, the resulting suspension was subjected to ultracentrifugation at 100,000 xg and 4° C. for one hour.
Receptor binding assay was carried out as follows:
The resulting mixture was allowed to stand at 4° C. for 16 hours. […] The count of the supernatant was determined by a scintillation counter.

HL60 cells = assay: Differentiation and induction effects on HL60 cells (CD11b positive cells, flow cytometry); format: cell-based; details: Homo sapiens, HL-60, 120 h; concentration at which the existing ratio of CD11b positive cells becomes 33%; cultivation for 5 days; read-out: Differentiation and induction effects of HL60 cells ED1/3
Source text: Differentiation and Induction Effects on HL60 Cells
It is known that human-derived promyelocytic leukemia cell strains HL60 differentiate into the corresponding granulocytic cells in the presence of all-trans retinoic acid [Breitman, T. Selonick., S. and Colling, S. Proc. Natl. Acad. Sci., 77, 2936(1980)]. In general, cells after differentiation have come to express specific differentiated antigens on their surface. When the HL60 cells are differentiated into granulocytic cells, CD11b which is a differential antigen between granulocytes and monocytes is expressed on the surface of the cells [Fontana, J A., Reppuci, A. Durham, J P. and Mirand, D. Cancer Res. 46, 2469-2473(1986)]. Effects of the invention compound on the differentiation and induction into granulocyte cells were studied by making use of the above-described phenomenon.
HL60 cells were cultured and kept in RPMI 1640 (a medium formulated by Rosewell Park Memorial Institute) to which 10% bovine fetal serum, 1 mM sodium […], 50 μM β-mercaptoethanol, 100 IU/ml of penicillin and 100 μg/ml of streptomycin had been added.
On each well of a 24-well plate, a 1 ml portion of the suspension containing HL60 in an amount of 1×10^5 […] was seeded. The invention compound was then added thereto at varied concentrations, followed by cultivation for 5 days in a 5% CO2-air incubator. After cultivation, the cells of each well were collected in a test tube, to which an FITC-labeled monoclonal antibody against Cd11b, that is, a granulocyte-monocyte specific antigen was added. The cells were then immobilized with 0.2% paraformaldehyde. The existing ratio of CD11b positive cells in the vial HL60 cell group present in each well was determined using flow cytometry [Miller, L J., Schwarting, R. and Springer, T A. J. Immunol. 137, 2891-2900(1986)]. The existing ratios of CD11b positive cells-of-compounds which will be described below were increased according to the concentration. The concentration at which the existing ratio of the positive cells becomes 33% is defined as ED1/3.

Compound	IC50 [1] [nM]	melting point	EC (33% CD11b positive cells) (HL60 cells) [µM]
CN1CCCC(C)(C)c2cc(-c3ccc(-c4ccc(C(=O)O)cc4)[nH]3)ccc21 [Compound of Ex. 85, 4-{2-{5-[7-(1,5,5-Trimethyl-2,3,4,5-tetrahydro-1H-benzazepinyl)]pyrrolyl}}benzoic acid]	< 0.5	–	0.001
CC1(C)CCC(C)(C)c2cc(-c3ccc(-c4ccc(C(=O)O)cc4)[nH]3)ccc21 [1), reference compound]	0.5	–	0.00094
CC1(C)CCC(C)(C)c2nc(-c3cc(-c4ccc(C(=O)O)cc4)co3)cnc21 [Compound of Ex. 4, 4-[4-[2-[2-(5,6,7,8-Tetrahydro-5,5,8,8-tetramethylquinoxalyl)]furyl]]benzoic acid]	7.2	–	0.0002
CC1(C)CCC(C)(C)c2nc(-c3cc(-c4ccc(C(=O)O)cc4)no3)cnc21 [Compound of Ex. 23, 4-[3-[5-[2-(5,6,7,8-Tetrahydro-5,5,8,8-tetramethylquinoxalyl)]isoxazolyl]]benzoic acid]	11	–	0.0006

More lines, in order of falling IC50 [1], values ahead:

IC50 [1] [nM]	melting point	Compound	EC (33% CD11b positive cells) (HL60 cells) [µM]
36	269 °C (dec.)	CC1(C)CC(C)(C)c2nc(-c3ccc(-c4ccc(C(=O)O)cc4)[nH]3)cnc21 [Compound of Ex. 43, 4-[2-[5-[2-(5,5,7,7-Tetramethylcyclopenta[b]pyrazinyl)]-pyrrolyl]]benzoic acid]	0.00036
2	246 °C (dec.)	CC(C)c1ncc(-c2ccc(-c3ccc(C(=O)O)cc3)[nH]2)nc1C(C)C [Compound of Ex. 42, 4-[2-[5-[2-(5,6-Diisopropylpyrazinyl)]pyrrolyl]]benzoic acid]	0.00033

— US6884808B2, “Heterocycle-containing carboxylic acid derivative and drug containing the same” (Eisai Co. Ltd., priority 1995, dated 2005)
